In patent US11083725B2 (priority 2014, dated 2021):

Test system: NHBE cells
Experiment: Biolog metabolic array: substrate use by NHBE cells with or without CA09 infection
Format: cell-based, human
Settings: for Substrate use, 590 nm absorbance normalized to zero hour, 1 hr: Biolog PMM2, 1 hr; for Substrate use, 590 nm absorbance normalized to zero hour, 5 hr: Biolog PMM2, 5 hr; for Substrate use, 590 nm absorbance normalized to zero hour, 7 hr: Biolog PMM2, 7 hr
[1] = Control (uninfected) NHBE cells
[2] = Virus (CA09-infected, MOI 1) NHBE cells
[3] = Virus: CA09-infected NHBE cells, MOI 1, Biolog PMM2
[4] = Virus (CA09-infected NHBE cells, MOI 1)

Row | Compound | 590 nm absorbance normalized to zero hour (substrate use), 1 hr [1] | 590 nm absorbance normalized to zero hour (substrate use), 2 hr [1] | 590 nm absorbance normalized to zero hour (substrate use), 3 hr [1] | 590 nm absorbance normalized to zero hour (substrate use), 4 hr [1] | 590 nm absorbance normalized to zero hour (substrate use), 6 hr [1] | 590 nm absorbance normalized to zero hour (substrate use), 8 hr [1] | 590 nm absorbance normalized to zero hour (substrate use), 9 hr [1] | 590 nm absorbance normalized to zero hour (substrate use), 10 hr [1] | 590 nm absorbance normalized to zero hour (substrate use), 11 hr [1] | Substrate use, 590 nm absorbance normalized to zero hour, 1 hr [1] | Substrate use, 590 nm absorbance normalized to zero hour, 5 hr [1] | Substrate use, 590 nm absorbance normalized to zero hour, 7 hr [1] | 590 nm absorbance normalized to zero hour (substrate use), 11 hr [2] | 590 nm absorbance normalized to zero hour (substrate use), 1 hr [3] | 590 nm absorbance normalized to zero hour (substrate use), 2 hr [3] | 590 nm absorbance normalized to zero hour (substrate use), 3 hr [3] | 590 nm absorbance normalized to zero hour (substrate use), 4 hr [3] | 590 nm absorbance normalized to zero hour (substrate use), 5 hr [3] | 590 nm absorbance normalized to zero hour (substrate use), 6 hr [3] | 590 nm absorbance normalized to zero hour (substrate use), 7 hr [3] | other results
1 | O=C(O)CCC(=O)O [Succinic Acid] | 1.02 | 1.06 | 1.08 | 1.06 | 0.39 | 0.96 | 0.94 | 0.87 | 0.81 | 1.02 | 1.04 | 1.00 | 3.12 | 1.69 | 2.01 | 2.37 | 2.37 | 2.54 | 2.73 | 2.78 | 590 nm absorbance normalized to zero hour (substrate use), 1 hr [2]: 1.69; 590 nm absorbance normalized to zero hour (substrate use), 2 hr [2]: 2.01; 590 nm absorbance normalized to zero hour (substrate use), 3 hr [2]: 2.37; 590 nm absorbance normalized to zero hour (substrate use), 4 hr [2]: 2.37; 590 nm absorbance normalized to zero hour (substrate use), 5 hr [2]: 2.54; 590 nm absorbance normalized to zero hour (substrate use), 6 hr [2]: 2.73; 590 nm absorbance normalized to zero hour (substrate use), 7 hr [2]: 2.78; 590 nm absorbance normalized to zero hour (substrate use), 8 hr [2]: 2.85; 590 nm absorbance normalized to zero hour (substrate use), 9 hr [2]: 3.06; 590 nm absorbance normalized to zero hour (substrate use), 10 hr [2]: 2.98; 590 nm absorbance normalized to zero hour (substrate use), 8 hr [3]: 2.85; 590 nm absorbance normalized to zero hour (substrate use), 9 hr [3]: 3.06; 590 nm absorbance normalized to zero hour (substrate use), 10 hr [3]: 2.98; 590 nm absorbance normalized to zero hour (substrate use), 11 hr [3]: 3.12
2 | O=C(CO)[C@@H](O)[C@@H](O)[C@H](O)CO [Tagatose] |  |  |  |  |  |  |  |  |  |  |  |  | 0.48 |  |  |  |  |  |  |  | 
3 | Cc1cn([C@H]2C[C@H](O)[C@@H](CO)O2)c(=O)[nH]c1=O [Thymidine] | 1.65 | 1.61 | 1.67 | 1.64 | 0.92 | 0.62 | 1.52 | 1.43 | 0.81 | 1.65 | 1.75 | 0.61 | 2.21 | 1.52 | 2.29 | 2.27 | 2.32 | 2.34 | 2.33 | 2.34 | 590 nm absorbance normalized to zero hour (substrate use), 1 hr [2]: 1.52; 590 nm absorbance normalized to zero hour (substrate use), 2 hr [2]: 2.29; 590 nm absorbance normalized to zero hour (substrate use), 3 hr [2]: 2.27; 590 nm absorbance normalized to zero hour (substrate use), 4 hr [2]: 2.32; 590 nm absorbance normalized to zero hour (substrate use), 5 hr [2]: 2.34; 590 nm absorbance normalized to zero hour (substrate use), 6 hr [2]: 2.33; 590 nm absorbance normalized to zero hour (substrate use), 7 hr [2]: 2.34; 590 nm absorbance normalized to zero hour (substrate use), 8 hr [2]: 2.26; 590 nm absorbance normalized to zero hour (substrate use), 9 hr [2]: 2.28; 590 nm absorbance normalized to zero hour (substrate use), 10 hr [2]: 0.94; 590 nm absorbance normalized to zero hour (substrate use), 8 hr [3]: 2.26; 590 nm absorbance normalized to zero hour (substrate use), 9 hr [3]: 2.28; 590 nm absorbance normalized to zero hour (substrate use), 10 hr [3]: 0.94; 590 nm absorbance normalized to zero hour (substrate use), 11 hr [3]: 2.21
4 | O=C(O)CC(CC(=O)O)C(=O)O [Tricarballylic Acid] | 1.07 | 1.03 | 0.79 | 1.20 | 0.35 | 0.54 | 0.83 | 0.74 | 0.59 | 1.07 | 0.72 | 0.89 |  | 0.20 | 0.25 | 0.29 | 0.29 | 0.32 | 0.34 | 0.36 | 590 nm absorbance normalized to zero hour (substrate use), 1 hr [4]: 0.20; 590 nm absorbance normalized to zero hour (substrate use), 2 hr [4]: 0.25; 590 nm absorbance normalized to zero hour (substrate use), 3 hr [4]: 0.29; 590 nm absorbance normalized to zero hour (substrate use), 4 hr [4]: 0.29; 590 nm absorbance normalized to zero hour (substrate use), 5 hr [4]: 0.32; 590 nm absorbance normalized to zero hour (substrate use), 6 hr [4]: 0.34; 590 nm absorbance normalized to zero hour (substrate use), 7 hr [4]: 0.36; 590 nm absorbance normalized to zero hour (substrate use), 8 hr [4]: 0.36; 590 nm absorbance normalized to zero hour (substrate use), 9 hr [4]: 0.39; 590 nm absorbance normalized to zero hour (substrate use), 10 hr [4]: 0.40; 590 nm absorbance normalized to zero hour (substrate use), 11 hr [4]: 0.38; 590 nm absorbance normalized to zero hour (substrate use), 8 hr [3]: 0.36; 590 nm absorbance normalized to zero hour (substrate use), 9 hr [3]: 0.39; 590 nm absorbance normalized to zero hour (substrate use), 10 hr [3]: 0.40; 590 nm absorbance normalized to zero hour (substrate use), 11 hr [3]: 0.38
5 | O=C(CO)[C@@H](O[C@H]1O[C@H](CO)[C@@H](O)[C@H](O)[C@H]1O)[C@H](O)[C@H](O)CO [Turanose] | 0.23 | 0.31 | 0.36 | 0.40 | 0.49 | 0.51 | 0.57 | 0.57 | 0.60 | 0.23 | 0.55 | 0.44 | 0.55 | 0.20 | 0.28 | 0.34 | 0.36 | 0.44 | 0.48 | 0.51 | 590 nm absorbance normalized to zero hour (substrate use), 0 hr [1]: 1.00; Substrate use, 590 nm absorbance normalized to zero hour, 0 hr (Control (uninfected) NHBE cells, Biolog PMM2, 0 hr): 1.00; 590 nm absorbance normalized to zero hour (substrate use), 0 hr [2]: 1.00; 590 nm absorbance normalized to zero hour (substrate use), 1 hr [2]: 0.20; 590 nm absorbance normalized to zero hour (substrate use), 2 hr [2]: 0.28; 590 nm absorbance normalized to zero hour (substrate use), 3 hr [2]: 0.34; 590 nm absorbance normalized to zero hour (substrate use), 4 hr [2]: 0.36; 590 nm absorbance normalized to zero hour (substrate use), 5 hr [2]: 0.44; 590 nm absorbance normalized to zero hour (substrate use), 6 hr [2]: 0.48; 590 nm absorbance normalized to zero hour (substrate use), 7 hr [2]: 0.51; 590 nm absorbance normalized to zero hour (substrate use), 8 hr [2]: 0.56; 590 nm absorbance normalized to zero hour (substrate use), 9 hr [2]: 0.61; 590 nm absorbance normalized to zero hour (substrate use), 10 hr [2]: 0.60; 590 nm absorbance normalized to zero hour (substrate use), 0 hr [3]: 1.00; 590 nm absorbance normalized to zero hour (substrate use), 8 hr [3]: 0.56; 590 nm absorbance normalized to zero hour (substrate use), 9 hr [3]: 0.61; 590 nm absorbance normalized to zero hour (substrate use), 10 hr [3]: 0.60; 590 nm absorbance normalized to zero hour (substrate use), 11 hr [3]: 0.55
